Laboratory results from PMC11589570, “Critical assessment of LC3/GABARAP ligands used for degrader development and ligandability of LC3/GABARAP binding pockets” (Nature Communications, 2024).
Values joined by “and” are separate entries in the source; they are usually repeats but may differ in a detail not shown here. Identical values can stand only once. “Also recorded” adds a separate entry of the source.

Key:
[1] = biological target: LC3B (Homo sapiens, UniProt Q9GZQ8); test: FP assay with Cy5-labelled p62 LIR tracer (protein titration and tracer displacement); assay type: binding; conditions: for normalized FP signal, p62 LIR tracer displacement: LC3B; for compound titration LC3B (displacement curve, FP signal): two replicate columns per compound
[2] = test system: U2OS cells; test: Cell growth assay (IncuCyte confluence over 72 h); assay type: cell-based; design: key to U2OS cell growth: % of well area covered by cells (confluence); conditions: for U2OS cell growth: listed as 8F20
Method in brief: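 U2OS cells were grown in DMEM with 10% FBS for 24 h before treatment. Confluence was then tracked by IncuCyte phase imaging over 72 h and expressed as % of well area covered by cells. Each point is the average of three wells.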

[3] = test system: RPE-1 GFP-LC3B-RPF-LC3∆G reporter cell line; test: Autophagy flux assay; assay type: cell-based; conditions: rebuttal letter
[4] = biological target: LC3A (Homo sapiens, UniProt Q9H492); test: FP assay with Cy5-labelled p62 LIR tracer (protein titration and tracer displacement); assay type: binding; conditions: LC3A
[5] = log10 concentration [M] -3.82391
[6] = log10 concentration [M] -4.1549
[7] = log10 concentration [M] -4.60206
[8] = log10 concentration [M] -5.30103
[9] = log10 concentration [M] -5.69897
[10] = log10 concentration [M] -6.22185
[11] = log10 concentration [M] -6.69897
[12] = log10 concentration [M] -7.30103
[13] = log10 concentration [M] -7.79588
[14] = log10 concentration [M] -8.08092

SMILES: Cc1ccc(C(=O)N(CCCN)[C@@H](c2nc3cc(Cl)ccc3c(=O)n2Cc2ccccc2)C(C)C)cc1 [compound 3, (R)-N-(3-aminopropyl)-N-(1-(3-benzyl-7-chloro-4-oxo-3,4-dihydroquinazolin-2-yl)−2-methylpropyl)−4-methylbenzamide]
- normalized FP signal, p62 LIR tracer displacement [1, 5]: 79.4737 and 100.789
- normalized FP signal, p62 LIR tracer displacement [1, 6]: 91.0526 and 93.9474
- normalized FP signal, p62 LIR tracer displacement [1, 7]: 98.6842 and 96.3158
- normalized FP signal, p62 LIR tracer displacement ([1]; log10 concentration [M] -5): 92.3684 and 100.263
- normalized FP signal, p62 LIR tracer displacement [1, 8]: 95.7895 and 96.5789
- normalized FP signal, p62 LIR tracer displacement [1, 9]: 95.5263 and 96.0526
- normalized FP signal, p62 LIR tracer displacement [1, 10]: 92.1053 and 92.3684
- normalized FP signal, p62 LIR tracer displacement [1, 11]: 97.6316 and 96.5789
- normalized FP signal, p62 LIR tracer displacement [1, 12]: 93.1579 and 99.7368
- normalized FP signal, p62 LIR tracer displacement [1, 13]: 100.263 and 96.8421
- normalized FP signal, p62 LIR tracer displacement [1, 14]: 95.2632 and 96.3158
- compound titration LC3B (displacement curve, FP signal) [1, 5]: 79.4737 and 100.789
- compound titration LC3B (displacement curve, FP signal) [1, 6]: 91.0526 and 93.9474
- compound titration LC3B (displacement curve, FP signal) [1, 7]: 98.6842 and 96.3158
- compound titration LC3B (displacement curve, FP signal) ([1]; log10 concentration [M] -5): 92.3684 and 100.263
- compound titration LC3B (displacement curve, FP signal) [1, 8]: 95.7895 and 96.5789
- compound titration LC3B (displacement curve, FP signal) [1, 9]: 95.5263 and 96.0526
- compound titration LC3B (displacement curve, FP signal) [1, 10]: 92.1053 and 92.3684
- compound titration LC3B (displacement curve, FP signal) [1, 11]: 97.6316 and 96.5789
- compound titration LC3B (displacement curve, FP signal) [1, 12]: 93.1579 and 99.7368
- compound titration LC3B (displacement curve, FP signal) [1, 13]: 100.263 and 96.8421
- compound titration LC3B (displacement curve, FP signal) [1, 14]: 95.2632 and 96.3158
- U2OS cell growth ([2]; 100 nM, time 34 h): 22.2522 and 20.3197 and 25.5047
- U2OS cell growth ([2]; 100 nM, time 36 h): 25.043 and 22.9919 and 27.5453
- U2OS cell growth ([2]; 100 nM, time 38 h): 34.8117 and 27.203 and 36.419
- U2OS cell growth ([2]; 100 nM, time 40 h): 28.7682 and 25.0593 and 31.2523
- U2OS cell growth ([2]; 100 nM, time 42 h): 28.8457 and 26.5057 and 32.2617
- U2OS cell growth ([2]; 100 nM, time 44 h): 31.3439 and 34.6421 and 31.7152
- U2OS cell growth ([2]; 100 nM, time 46 h): 34.3656 and 30.4353 and 36.3708
- U2OS cell growth ([2]; 500 nM, time 34 h): 26.6194 and 31.3484 and 27.2425
- U2OS cell growth ([2]; 500 nM, time 36 h): 31.7612 and 33.804 and 33.4668
- U2OS cell growth ([2]; 500 nM, time 38 h): 33.118 and 34.4569 and 30.251
- U2OS cell growth ([2]; 500 nM, time 40 h): 39.6842 and 38.1992 and 33.6035
- U2OS cell growth ([2]; 500 nM, time 42 h): 36.1441 and 40.2893 and 34.3307
- U2OS cell growth ([2]; 500 nM, time 44 h): 39.8612 and 39.5559 and 35.4494
- U2OS cell growth ([2]; 1 uM, time 34 h): 32.3197 and 36.2486 and 28.9643
- U2OS cell growth ([2]; 1 uM, time 36 h): 35.3333 and 38.6378 and 32.1258
- U2OS cell growth ([2]; 1 uM, time 38 h): 37.1941 and 39.9036 and 33.4921
- U2OS cell growth ([2]; 1 uM, time 40 h): 42.2479 and 44.6121 and 35.334
- U2OS cell growth ([2]; 1 uM, time 42 h): 42.2672 and 42.3728 and 37.7313
- U2OS cell growth ([2]; 1 uM, time 44 h): 41.5555 and 43.3678 and 38.4367
- U2OS cell growth ([2]; 1 uM, time 46 h): 37.0733
- U2OS cell growth ([2]; 3 uM, time 34 h): 24.9204 and 26.3201 and 25.7719
- U2OS cell growth ([2]; 3 uM, time 36 h): 25.7351 and 27.3161 and 28.6407
- U2OS cell growth ([2]; 3 uM, time 38 h): 25.9027 and 26.3122 and 27.7775
- U2OS cell growth ([2]; 3 uM, time 40 h): 26.2298 and 26.2214 and 29.7472
- U2OS cell growth ([2]; 3 uM, time 42 h): 25.5977 and 26.3382 and 29.6536
- U2OS cell growth ([2]; 3 uM, time 44 h): 26.2297 and 25.3695 and 28.5871
- U2OS cell growth ([2]; 3 uM, time 46 h): 24.6522 and 24.6058 and 27.1829
- U2OS cell growth ([2]; 5 uM, time 34 h): 28.2897 and 22.3175 and 29.2635
- U2OS cell growth ([2]; 5 uM, time 36 h): 23.4225 and 23.0973 and 22.2621
- U2OS cell growth ([2]; 5 uM, time 38 h): 33.3374 and 20.2415 and 36.6497
- U2OS cell growth ([2]; 5 uM, time 40 h): 36.8034 and 23.7173 and 40.6411
- U2OS cell growth ([2]; 5 uM, time 42 h): 29.192 and 24.8481 and 31.1144
- U2OS cell growth ([2]; 5 uM, time 44 h): 25.7303 and 24.4958 and 26.8332
- U2OS cell growth ([2]; 5 uM, time 46 h): 31.8475 and 23.3649 and 37.1335
- effect on cell growth (confluence) ([2]; U2OS, 72 h): significant growth inhibition in all tested concentrations; also recorded: strongly suppressed cellular growth
- autophagy induction (autophagy flux) [3]: significant autophagy activation
- effects on cell growth (Incucyte life cell imaging) [3]: profound effects on cell growth
- normalized FP signal, p62 LIR tracer displacement ([4]; log10 concentration [M] -3.82391, listed as 8F20): 97.3684 and 104.737
- normalized FP signal, p62 LIR tracer displacement ([4]; log10 concentration [M] -4.1549, listed as 8F20): 102.105 and 103.947
- normalized FP signal, p62 LIR tracer displacement ([4]; log10 concentration [M] -4.60206, listed as 8F20): 101.053 and 106.053
- normalized FP signal, p62 LIR tracer displacement ([4]; log10 concentration [M] -5, listed as 8F20): 99.7368 and 100.789
- normalized FP signal, p62 LIR tracer displacement ([4]; log10 concentration [M] -5.30103, listed as 8F20): 102.105 and 98.4211
- normalized FP signal, p62 LIR tracer displacement ([4]; log10 concentration [M] -5.69897, listed as 8F20): 97.6316 and 96.0526
- normalized FP signal, p62 LIR tracer displacement ([4]; log10 concentration [M] -6.22185, listed as 8F20): 102.632 and 94.2105
- normalized FP signal, p62 LIR tracer displacement [4, 11]: 101.053
- normalized FP signal, p62 LIR tracer displacement ([4]; log10 concentration [M] -6.69897, listed as 8F20): 99.7368
- normalized FP signal, p62 LIR tracer displacement ([4]; log10 concentration [M] -7.30103, listed as 8F20): 103.947 and 101.316
- normalized FP signal, p62 LIR tracer displacement [4, 13]: 98.4211
- normalized FP signal, p62 LIR tracer displacement ([4]; log10 concentration [M] -7.79588, listed as 8F20): 93.9474
- normalized FP signal, p62 LIR tracer displacement [4, 14]: 102.105
- normalized FP signal, p62 LIR tracer displacement ([4]; log10 concentration [M] -8.08092, listed as 8F20): 93.9474
